According to US12715849B2, “Herbicidal tetrazole compounds” (SYNGENTA CROP PROTECTION AG, priority 2020, dated 2026):

Tests used:
Test in all cases: Glasshouse herbicidal test, pre- and post-emergence (Table B1)
Assay type in all cases: in vivo
[1] = system: Ablution theophrasti (ABUTH); settings: 130 g/h, evaluated after 13 days; for percentage damage caused to the plant, POST Application ABUTH: post-emergence; for percentage damage caused to the plant, PRE Application ABUTH: pre-emergence
Protocol: (§1) Seeds of a variety of test species are sown in standard soil in pots (Lolium perenne (LOLPE), Amaranthus retoflexus (AMARE), Amaranthus palmeri (AMAPA), Ablution theophrasti (ABUTH), Setaria faberi (SETFA), Echinochloa crus-galli (ECHCG), Ipomoea hederacea (IPOHE)). After cultivation for one day (pre-emergence) or after 8 days cultivation (post-emergence) under controlled conditions in a glasshouse (at 24/16° C., day/night; 14 hours light; 65% humidity), the plants are sprayed with an aqueous spray solution derived from the formulation of the technical active ingredient in acetone/water (50:50) solution containing 0.5% Tween 20 (polyoxyethelyene sorbitan monolaurate, CAS RN 9005-64-5). Compounds are applied at 130 g/h unless otherwise indicated. The test plants are then grown in a glasshouse under controlled conditions in a glasshouse (at 24/16° C., day/night; 14 hours light; 65% humidity) and watered twice daily. After 13 days for pre and post-emergence, the test is evaluated for the percentage damage caused to the plant. The biological activities are shown in the following table on a five-point scale (5=80-100%; 4=60-79%; 3=40-59%; 2=20-39%; 1=0-19%).

[2] = system: Ipomoea hederacea (IPOHE); settings: 130 g/h, evaluated after 13 days; for percentage damage caused to the plant, POST Application IPOHE: post-emergence; for percentage damage caused to the plant, PRE Application IPOHE: pre-emergence
Protocol: as §1

[3] = system: Echinochloa crus-galli (ECHCG); settings: 130 g/h, evaluated after 13 days; for percentage damage caused to the plant, POST Application ECHCG: post-emergence; for percentage damage caused to the plant, PRE Application ECHCG: pre-emergence
Protocol: as §1

Setaria faberi (SETFA) = settings: 130 g/h, evaluated after 13 days; for percentage damage caused to the plant, POST Application SETFA: post-emergence; for percentage damage caused to the plant, PRE Application SETFA: pre-emergence
Protocol: as §1

[4] = system: Amaranthus retoflexus (AMARE); settings: 130 g/h, evaluated after 13 days; for percentage damage caused to the plant, POST Application AMARE: post-emergence; for percentage damage caused to the plant, PRE Application AMARE: pre-emergence
Protocol: as §1

[5] = system: Amaranthus palmeri (AMAPA); settings: 130 g/h, evaluated after 13 days; for percentage damage caused to the plant, POST Application AMAPA: post-emergence; for percentage damage caused to the plant, PRE Application AMAPA: pre-emergence
Protocol: as §1

SMILES | percentage damage caused to the plant, POST Application ABUTH [1] | percentage damage caused to the plant, PRE Application ABUTH [1] | percentage damage caused to the plant, POST Application IPOHE [2] | percentage damage caused to the plant, PRE Application IPOHE [2] | percentage damage caused to the plant, POST Application ECHCG [3] | percentage damage caused to the plant, PRE Application ECHCG [3] | percentage damage caused to the plant, POST Application SETFA (Setaria faberi (SETFA)) | percentage damage caused to the plant, PRE Application SETFA (Setaria faberi (SETFA)) | percentage damage caused to the plant, POST Application AMARE [4] | percentage damage caused to the plant, PRE Application AMARE [4] | percentage damage caused to the plant, POST Application AMAPA [5] | percentage damage caused to the plant, PRE Application AMAPA [5]
CCn1nnnc1NC(=O)c1ccc(OC(F)(F)F)c(NS(C)(=O)=O)c1Cl [Compound 1.001] | 5 (5=80-100%) | 5 (5=80-100%) | 5 (5=80-100%) | 4 (4=60-79%) | 5 (5=80-100%) | 5 (5=80-100%) | 5 (5=80-100%) | 3 (3=40-59%) | 4 (4=60-79%) | 5 (5=80-100%) | – | –
CCn1nnnc1NC(=O)c1ccc(OC(F)(F)F)c(NS(=O)(=O)CC)c1Cl [Compound 1.002, 2-chloro-3-(ethylsulfonylamino)-N-(1-ethyltetrazol-5-yl)-4-(trifluoromethoxy)benzamide] | 5 (5=80-100%) | 5 (5=80-100%) | 4 (4=60-79%) | 5 (5=80-100%) | 5 (5=80-100%) | 5 (5=80-100%) | 5 (5=80-100%) | 5 (5=80-100%) | 5 (5=80-100%) | 5 (5=80-100%) | – | –
CCS(=O)(=O)Nc1c(OC(F)(F)F)ccc(C(=O)Nc2nnnn2C)c1Cl [Compound 1.003, 2-chloro-3-(ethylsulfonylamino)-N-(1-methyltetrazol-5-yl)-4-(trifluoromethoxy)benzamide] | 5 (5=80-100%) | 5 (5=80-100%) | 5 (5=80-100%) | 4 (4=60-79%) | 5 (5=80-100%) | 5 (5=80-100%) | 5 (5=80-100%) | 4 (4=60-79%) | 4 (4=60-79%) | 5 (5=80-100%) | – | –
Cn1nnnc1NC(=O)c1ccc(OC(F)(F)F)c(NS(C)(=O)=O)c1Cl [Compound 1.004] | 5 (5=80-100%) | 5 (5=80-100%) | 4 (4=60-79%) | 3 (3=40-59%) | 5 (5=80-100%) | 5 (5=80-100%) | 5 (5=80-100%) | 5 (5=80-100%) | 5 (5=80-100%) | 5 (5=80-100%) | – | –
CC(C)S(=O)(=O)Nc1c(OC(F)F)ccc(C(=O)Nc2nnnn2C)c1Cl [Compound 1.013] | 5 (5=80-100%) | 5 (5=80-100%) | 5 (5=80-100%) | 5 (5=80-100%) | 5 (5=80-100%) | 5 (5=80-100%) | 5 (5=80-100%) | 4 (4=60-79%) | 5 (5=80-100%) | 5 (5=80-100%) | – | –
CCn1nnnc1NC(=O)c1ccc(OC(F)F)c(NS(C)(=O)=O)c1Cl [Compound 1.059] | 5 (5=80-100%) | 5 (5=80-100%) | 5 (5=80-100%) | 2 (2=20-39%) | 5 (5=80-100%) | 5 (5=80-100%) | 5 (5=80-100%) | 4 (4=60-79%) | 5 (5=80-100%) | 5 (5=80-100%) | – | –
Cn1nnnc1NC(=O)c1ccc(OC(F)F)c(NS(C)(=O)=O)c1Cl [Compound 1.065] | – | 5 (5=80-100%) | 4 (4=60-79%) | 2 (2=20-39%) | – | 4 (4=60-79%) | 5 (5=80-100%) | 3 (3=40-59%) | 5 (5=80-100%) | 5 (5=80-100%) | – | –
Cn1nnnc1NC(=O)c1ccc(OC(F)F)c(NS(=O)(=O)C2CC2)c1Cl [Compound 1.067] | 5 (5=80-100%) | 5 (5=80-100%) | 5 (5=80-100%) | 4 (4=60-79%) | 5 (5=80-100%) | 4 (4=60-79%) | 5 (5=80-100%) | 3 (3=40-59%) | 4 (4=60-79%) | 5 (5=80-100%) | – | –
CCN(c1c(OC(F)(F)F)ccc(C(=O)Nc2nnnn2C)c1Cl)S(=O)(=O)CC [Compound 1.078] | – | – | 4 (4=60-79%) | 4 (4=60-79%) | – | 5 (5=80-100%) | 5 (5=80-100%) | 5 (5=80-100%) | 5 (5=80-100%) | 5 (5=80-100%) | 5 (5=80-100%) | 5 (5=80-100%)
CCN(c1c(OC(F)(F)F)ccc(C(=O)Nc2nnnn2C)c1Cl)S(C)(=O)=O [Compound 1.079] | – | – | 4 (4=60-79%) | 4 (4=60-79%) | – | 5 (5=80-100%) | 5 (5=80-100%) | 5 (5=80-100%) | 5 (5=80-100%) | 5 (5=80-100%) | 5 (5=80-100%) | 5 (5=80-100%)
CCS(=O)(=O)N(C)c1c(OC(F)(F)F)ccc(C(=O)Nc2nnnn2C)c1Cl [Compound 1.080] | – | – | 5 (5=80-100%) | 5 (5=80-100%) | 5 (5=80-100%) | 5 (5=80-100%) | 5 (5=80-100%) | 5 (5=80-100%) | 5 (5=80-100%) | 5 (5=80-100%) | 5 (5=80-100%) | 5 (5=80-100%)
CCS(=O)(=O)Nc1c(OC(F)(F)C(F)F)ccc(C(=O)Nc2nnnn2C)c1Cl [Compound 1.086] | – | – | 5 (5=80-100%) | 2 (2=20-39%) | 5 (5=80-100%) | 5 (5=80-100%) | 5 (5=80-100%) | 4 (4=60-79%) | 5 (5=80-100%) | 5 (5=80-100%) | 5 (5=80-100%) | 5 (5=80-100%)
CCS(=O)(=O)N(C)c1c(OC(F)F)ccc(C(=O)Nc2nnnn2C)c1Cl [Compound 1.087] | – | – | 4 (4=60-79%) | 5 (5=80-100%) | 5 (5=80-100%) | 5 (5=80-100%) | 5 (5=80-100%) | 5 (5=80-100%) | 5 (5=80-100%) | 5 (5=80-100%) | 5 (5=80-100%) | 5 (5=80-100%)
